Source: ChEMBL document CHEMBL1129781, “Inhibition of protein phosphatase 2A by cantharidin analogues” (Bioorg Med Chem Lett, 1996)

Experiments:
Mus musculus [1] = species: Mus musculus; assay: Compound was tested for inhibition of cantharidin-binding protein(CBP) phosphatase isolated from mouse liver: Range=92-95; conditions: concentration not given here
Mus musculus [2] = species: Mus musculus; assay: Inhibition of Protein Phosphatase 2A (PP2A) partially purified from mouse brain; format: tissue-based; design: concentration or dose not given beside the values; conditions: concentration not given here
[3] = Compound was tested for inhibition of specific [3H]cantharidin binding to CBP: Range=4-8; design: species or system Mus musculus
[4] = molecular target: Serine/threonine-protein phosphatase 2A 65 kDa regulatory subunit A alpha isoform (Mus musculus, UniProt Q76MZ3); assay: Compound was tested for inhibitory concentration of Protein Phosphatase 2A (PP2A).
Serine/threonine-protein phosphatase 2A 65 kDa regulatory subunit A alpha isoform, sequence (Q76MZ3 whole entry, canonical isoform): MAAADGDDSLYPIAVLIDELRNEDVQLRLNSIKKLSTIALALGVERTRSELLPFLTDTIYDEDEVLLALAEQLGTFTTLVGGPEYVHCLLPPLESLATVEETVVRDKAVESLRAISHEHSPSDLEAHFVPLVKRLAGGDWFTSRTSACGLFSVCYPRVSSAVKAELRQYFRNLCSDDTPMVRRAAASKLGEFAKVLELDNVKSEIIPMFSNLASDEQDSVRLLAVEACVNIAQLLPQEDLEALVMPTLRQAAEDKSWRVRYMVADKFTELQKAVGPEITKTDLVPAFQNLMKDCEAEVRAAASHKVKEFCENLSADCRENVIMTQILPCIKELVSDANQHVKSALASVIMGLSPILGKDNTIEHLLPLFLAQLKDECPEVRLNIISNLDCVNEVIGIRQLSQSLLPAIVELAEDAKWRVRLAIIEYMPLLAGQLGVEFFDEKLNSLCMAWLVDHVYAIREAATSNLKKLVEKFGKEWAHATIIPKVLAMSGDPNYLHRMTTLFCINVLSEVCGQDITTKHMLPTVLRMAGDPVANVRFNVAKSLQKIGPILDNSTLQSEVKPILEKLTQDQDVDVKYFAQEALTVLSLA

[5] = Compound was tested for inhibition of specific [3H]cantharidin binding to CBP.; design: species or system Mus musculus
Mus musculus [6] = species: Mus musculus; assay: Compound was tested for inhibition of cantharidin-binding protein(CBP) phosphatase isolated from mouse liver.; design: concentration or dose not given beside the values; conditions: concentration not given here
[7] = Compound was tested for inhibition of specific [3H]cantharidin binding to CBP: Range= 200->100000; design: species or system Mus musculus
[8] = Compound was tested for inhibition of specific [3H]cantharidin binding to CBP: Range= 10-50; design: species or system Mus musculus
Mus musculus [9] = species: Mus musculus; assay: Compound was tested for inhibition of cantharidin-binding protein(CBP) phosphatase isolated from mouse liver: Range= 22-51; conditions: concentration not given here

## CC12C(=O)OC(=O)C1(C)C1CCC2O1 (stereo unspecified)
Mus musculus [1]
  inhibition: 92%
Mus musculus [2]
  inhibition: 95%
[3]
  IC50: 0.004 µM
[4]
  IC50: 8 µM

## O=C1OC(=O)C2C3CCC(O3)C12 (stereo unspecified) [DEMETHYL-CANTHARIDIN]
Mus musculus [2]
  inhibition: 88.3%
[4]
  IC50: 70 µM

## O=C(O)C1C2C=CC(O2)C1C(=O)O (stereo unspecified)
Mus musculus [2]
  inhibition: 80.3%
[4]
  IC50: 300 µM

## CC1(C(=O)O)C2CCC(O2)C1(C)C(=O)O (stereo unspecified) [CANTHARIDIC_ACID]
[5]
  IC50: 4 µM
Mus musculus [6]
  inhibition: 95%

## O=C1OC(=O)C2C3CCC(C3)C12 (stereo in doubt; 7)
Mus musculus [2]
  inhibition: 38.7%

## O=C1OC(=O)C2CC=CCC12 (stereo unspecified)
Mus musculus [2]
  inhibition: 24%

## CCOC(=O)C1CC2OC1C(C(=O)O)C2C(=O)O (stereo unspecified)
Mus musculus [6]
  inhibition: 0%
[7]
  IC50: > 100 µM

## CC12CCC(C)(O1)C(C(=O)O)C2C(=O)O (stereo unspecified)
Mus musculus [6]
  inhibition: 0%
[7]
  IC50: > 100 µM

## O=C(O)C1CC=CCC1C(=O)O (stereo unspecified)
Mus musculus [2]
  inhibition: 12.2%

## O=C(O)C1CC2C=CC1C2 (stereo unspecified)
Mus musculus [2]
  inhibition: 3.8%

## O=C1OC(=O)[C@H]2[C@@H]1[C@H]1C=C[C@H]2C1 (stereo in doubt; 6)
Mus musculus [2]
  inhibition: 48.8%

## O=C(O)[C@@H]1[C@H](C(=O)O)[C@H]2CC[C@@H]1O2 [ENDOTHALL]
[8]
  IC50: 0.05 µM
Mus musculus [9]
  inhibition: 51%

## O=C(O)C1C2C=CC(C2)C1C(=O)O (stereo unspecified)
Mus musculus [2]
  inhibition: 17.2%

## COC(=O)C1CC2C=CC1C2 (stereo unspecified)
Mus musculus [2]
  inhibition: 30.8%

## N#CCC1CC2OC1C(C(=O)O)C2C(=O)O (stereo unspecified)
Mus musculus [6]
  inhibition: 0%
[7]
  IC50: > 100 µM

## O=C1OC(=O)[C@H]2[C@@H]1[C@H]1C=C[C@H]2C1 (stereo in doubt; 5)
Mus musculus [2]
  inhibition: 48.1%

## O=C1OC(=O)C2CCCCC12 (stereo unspecified)
Mus musculus [2]
  inhibition: 9.2%

## O=C1OC(=O)C2C3C=CC(O3)C12 (stereo unspecified)
Mus musculus [2]
  inhibition: 95.2%
[4]
  IC50: 40 µM

## O=C(O)C1CC2OC1C(C(=O)O)C2C(=O)O (stereo unspecified)
[8]
  IC50: 0.05 µM
Mus musculus [9]
  inhibition: 51%

## O=C1OC(=O)C2C3CCC(C3)C12 (stereo in doubt; 11)
Mus musculus [2]
  inhibition: 13.3%

## CC1(C(=O)O)C2CCC(O2)C1C(=O)O (stereo unspecified)
[8]
  IC50: 0.05 µM
Mus musculus [9]
  inhibition: 51%

## O=C1OC(=O)C23CCCC12C1CCC3O1 (stereo unspecified)
[5]
  IC50: 4 µM
Mus musculus [6]
  inhibition: 95%
